Source: patent EP4768487A1, “FUSED LACTAM RING COMPOUND AND USE THEREOF” (Chengdu Zenitar Biomedical Technology Co., Ltd., priority 2023, dated 2025)
Read-outs that look alike come from different tables or passages of the source.

Legend:
[1] = target: T1, PARP1 (Homo sapiens, UniProt P09874); test: PARP1 enzyme assay (histone-coated plate, chemiluminescence); assay type: biochemical; details: PARP1 0.02 nM, DNA 0.8 nM, NAD+ 3.5 µM; read-out: PARP-1 IC50
T1 construct: purchased BPS 80501

[2] = Cerebrospinal fluid and plasma distribution in vivo; details: rat, male rats, intravenous 5 mg/kg, n = 1
Procedure: Experimental procedures: The compound was weighed out, a small amount of DMSO was added, and then a sodium chloride solution for injection was added to prepare a 5 mg·mL^-1 compound solution for later administration. […] 10 µL of the plasma and 10 µL of the cerebrospinal fluid were each added to a centrifuge tube, and 40 µL of acetonitrile containing 20 ng·mL^-1 internal standard SAHA was added for precipitation. […] The supernatant was collected and transferred to a sample vial for later analysis. Range of standard curve: 1-1000 ng·mL^-1.

[3] = target: T2, PARP6 (Homo sapiens, UniProt Q2NL67); test: Assay for selectivity for PARP6 (ELISA, chemiluminescence); assay type: biochemical
T2 construct: purchased BPS 80556
Procedure: Main instruments and reagents for PARP6 assay
Experimental procedures: The enzymatic activity of PARP6 was assayed by the ELISA method. […] The IC50 values of the compounds were calculated using the nonlinear fitting formula in GraphPad software.

[4] = cerebrospinal fluid, read-out: Cerebrospinal fluid

T2 sequence (Q2NL67 whole entry): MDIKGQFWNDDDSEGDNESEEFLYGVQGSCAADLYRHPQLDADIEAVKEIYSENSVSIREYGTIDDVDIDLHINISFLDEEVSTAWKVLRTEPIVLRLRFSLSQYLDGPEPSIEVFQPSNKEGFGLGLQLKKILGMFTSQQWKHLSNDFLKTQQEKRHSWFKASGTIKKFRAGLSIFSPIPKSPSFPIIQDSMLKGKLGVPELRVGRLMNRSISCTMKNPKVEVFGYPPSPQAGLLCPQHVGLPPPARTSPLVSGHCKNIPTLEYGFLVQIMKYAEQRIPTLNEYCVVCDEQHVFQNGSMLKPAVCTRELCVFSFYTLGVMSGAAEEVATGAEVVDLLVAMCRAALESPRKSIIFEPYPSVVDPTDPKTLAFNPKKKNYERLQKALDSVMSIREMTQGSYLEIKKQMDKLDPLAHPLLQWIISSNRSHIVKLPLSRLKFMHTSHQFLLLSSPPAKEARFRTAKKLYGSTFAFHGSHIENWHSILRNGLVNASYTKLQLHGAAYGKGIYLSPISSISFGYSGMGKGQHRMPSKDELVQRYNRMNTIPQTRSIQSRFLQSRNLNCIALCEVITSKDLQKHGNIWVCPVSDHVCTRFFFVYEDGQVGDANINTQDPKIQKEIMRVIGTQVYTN
T1 sequence (P09874 whole entry): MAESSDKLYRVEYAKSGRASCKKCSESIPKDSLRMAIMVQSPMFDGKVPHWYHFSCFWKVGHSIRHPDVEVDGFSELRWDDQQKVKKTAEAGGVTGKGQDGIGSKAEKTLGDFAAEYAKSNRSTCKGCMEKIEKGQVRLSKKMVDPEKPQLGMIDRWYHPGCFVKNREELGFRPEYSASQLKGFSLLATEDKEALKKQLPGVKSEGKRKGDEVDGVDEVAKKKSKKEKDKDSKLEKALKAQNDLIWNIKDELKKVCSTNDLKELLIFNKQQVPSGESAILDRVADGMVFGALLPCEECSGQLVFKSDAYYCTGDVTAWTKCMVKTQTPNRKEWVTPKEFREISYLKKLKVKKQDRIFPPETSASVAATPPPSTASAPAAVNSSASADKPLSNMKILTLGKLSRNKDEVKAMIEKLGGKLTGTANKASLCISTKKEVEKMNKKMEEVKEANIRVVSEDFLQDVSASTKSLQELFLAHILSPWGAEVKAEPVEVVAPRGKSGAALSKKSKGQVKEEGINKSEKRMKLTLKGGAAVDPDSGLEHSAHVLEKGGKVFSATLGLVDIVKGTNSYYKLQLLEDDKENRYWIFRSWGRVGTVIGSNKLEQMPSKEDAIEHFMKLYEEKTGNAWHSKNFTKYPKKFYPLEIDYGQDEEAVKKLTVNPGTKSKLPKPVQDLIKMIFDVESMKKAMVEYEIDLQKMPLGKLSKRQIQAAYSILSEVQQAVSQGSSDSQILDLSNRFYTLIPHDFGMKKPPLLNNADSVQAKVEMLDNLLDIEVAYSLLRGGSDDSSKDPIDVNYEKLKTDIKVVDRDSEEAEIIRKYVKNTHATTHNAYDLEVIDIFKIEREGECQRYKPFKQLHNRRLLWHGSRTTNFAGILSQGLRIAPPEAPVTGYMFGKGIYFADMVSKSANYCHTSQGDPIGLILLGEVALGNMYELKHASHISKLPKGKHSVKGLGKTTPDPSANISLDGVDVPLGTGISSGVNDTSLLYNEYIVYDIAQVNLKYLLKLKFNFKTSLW

Structure (SMILES) | IC50 [1] | concentration at 0.25 h [2, 4] | concentration at 2 h [2, 4] | concentration at 0.25 h ([2]; plasma, read-out: Plasma) | concentration at 2 h ([2]; plasma, read-out: Plasma) | IC50 [3] | inhibitory effects on PARP6 (in words) ([3]; conclusion of Table 21)
CNC(=O)c1ccc(N2CCN(CC3Cc4[nH]c(=O)c(C(F)F)cc4CO3)CC2)c(F)n1 (centres unmarked) [Example 43, 5-(4-((3-(Difluoromethyl)-2-oxo-1,5,7,8-tetrahydro-2H-pyrano[4,3-b]pyridin-7-yl)methyl)piperazin-1-yl)-6-fluoro-N-methylpicolinamide] | 0.05 to 0.5 µM | 16 ng/g | 3 ng/g | 8030 ng/mL | 7690 ng/mL | > 10 µM | Conclusion: Compounds 2, 43, etc., of the present disclosure exhibited relatively weak inhibitory effects on PARP6, demonstrating high selectivity.
CCc1cc2ncc(CN3CCN(c4ccc(C(=O)NC)nc4)CC3)cc2[nH]c1=O [AZD5305, reference compound] | – | – | – | – | – | 8.19 µM | –
